Experiment [1] has as its system Hsp90 (C. neoformans whole cell lysate). In kind it is binding. Conditions: Yes/No call. An outline of the steps: (§1)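 In this fluorescence polarization competition assay, compound titrations in buffer with 0.1 mg/mL bovine gamma globulin were mixed with fungal whole-cell lysate spiked with 0.1 nM Cy3-geldanamycin probe. Plates were incubated 4.5 h at room temperature. EC50 came from 4-parameter fits of probe displacement, normalized to GdA in the same lysate.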

The target of experiment [2] is Hsp90 (C. neoformans whole cell lysate) (Cryptococcus neoformans, UniProt J9VVA4). In kind it is binding. The conditions noted are these: for C. neo Active (biochemical): Yes/No call; for EC50: read-out: C. neo EC50. An outline of the steps: as §1
The target of experiment [3] is Hsp90 (C. albicans whole cell lysate) (Candida albicans (strain SC5314 / ATCC MYA-2876) (Yeast), UniProt P46598). As to the kind of experiment: biochemical. In kind it is binding. Conditions: for C. alb Active (biochemical): Yes/No call; for EC50: read-out: C. alb EC50. An outline of the steps: as §1
In experiment [4] the test system is Hsp90 (C. albicans whole cell lysate). As to the kind of experiment: biochemical. Conditions: for C. alb Selective: Yes/No call. In kind it is binding. An outline of the steps: as §1
The target of experiment [5] is T1, C. neoformans Hsp90 NBD (Cryptococcus neoformans, UniProt J9VVA4). In words: FP assay with purified C. neoformans Hsp90 NBD (Ki). In kind it is binding. The conditions noted are these: for C. neo Selectivity (FS): C. neo FS calculated using Ki. On the procedure:
Thermal shift assays were performed under saturating ligand conditions, i.e. equimolar concentrations (10 μM) of protein and ligand. As a result, they can provide only qualitative evidence of target binding, but not a quantitative measurement of ligand affinity. […] Titrations of the Cy3-GdA probe and purified proteins were evaluated to define assay conditions and to determine the dissociation constant Kd of the probe for each NBD. Serial dilutions of test Hsp90 inhibitors were then assayed in triplicate wells under these conditions. Non-linear 4-parameter curve fitting of raw displacement data was performed in GraphPad Prism 5.0 to determine IC50 values. Finally, inhibitory constants (Ki) were calculated as described previously.
NBD expression and purification. Recombinant Hsp90 NBDs were expressed and purified as previously described. Stock protein solutions in 50% glycerol were stored at −20° C. until dilution into relevant buffers and use for FP and thermal shift assays.

Experiment [6] relates to C. neoformans (Strain H99). In words: Antifungal sensitivity testing (MIC), C. neoformans H99. In kind it is cell-based. The conditions noted are these: for C. neo Active (cells): Yes/No call.
The subject of experiment [7] is C. albicans clinical isolate (CaCi2). In words: Fungicidal activity: spotting of MIC cultures onto compound-free YPD agar. In kind it is cell-based. Conditions: C. albicans CaCi2, spotted on YPD agar after 48 h exposure. As to the method:
Color scale bar: no growth inhibition (green) to complete inhibition (black). Each shaded box represents the mean of technical duplicates. The experiment was repeated as an independent biological replicate to confirm results.
Each shaded box represents the mean of technical duplicates. Relative viable cell number was monitored by standard dye reduction assay after 3-hr incubation with resazurin at 37° C. FIG. 6B: Following exposure to compounds, aliquots of the culture in each well were spotted onto compound-free YPD agar and plates incubated at 30° C. for an additional 24 hours before imaging to assess viability. The entire experiment consisting of growth in liquid culture followed by spotting onto YPD agar was repeated once.
Antifungal sensitivity testing. […] Each compound was tested in duplicate in at least two independent experiments. […] Plates were photographed after 24 h of incubation at 30° C.

Experiment [8] addresses T1, C. neoformans Hsp90 NBD. In words: Protein thermal shift assay, C. neoformans Hsp90 NBD. Conditions: equimolar protein and ligand (10 μM). In kind it is binding. As to the method:
[…]. Using recombinant proteins, assay-independent nanomolar inhibitory constants (Ki) were defined for these compounds. Binding of the compounds to their relevant NBD by thermal shift denaturation assays was also confirmed. Thermal shift assays were performed under saturating ligand conditions, i.e. equimolar concentrations (10 μM) of protein and ligand. As a result, they can provide only qualitative evidence of target binding, but not a quantitative measurement of ligand affinity. […] […]. C. neoformans or C. albicans Hsp90 NBD was combined with equimolar concentrations of the indicated bioactive inhibitors (10 μM) or DMSO control, in technical triplicates. The protein was heated from 25 to 98.6° C. at 0.2° C./5 s in the presence of Sypro Orange dye. All compounds induce an increase in melting temperature relative to the DMSO control, reported as ΔTm.
Protein thermal shift assays. Thermal melting curves were determined using a Protein Thermal Shift Kit (ThermoFisher #4462263), employing a CFX384 Real-Time PCR System (Bio-Rad, C1000 Touch Thermal Cycler). Reactions were performed in a final volume of 10 μL, and contained purified C. albicans or C. neoformans Hsp90 NBD diluted to 250 μg/mL in Buffer HBS-P (GE Healthcare Life Sciences, 0.01 M HEPES pH 7.4, 0.15 M NaCl, 0.005% v/v Surfactant P20) with 10 μM synthetic analog or DMSO control, and 1× Sypro Orange dye solution. Samples were prepared in triplicate in 384-well white plates (Bio-Rad; HSP3805). The instrument was set to melt curve, step 1 (25° C., 2 min) and step 2 (ramp to 98.6° C., increasing 0.2° C. per 5 s cycle). The inflection point of each curve is defined as the protein melting temperature (Tm). Temperature shift, ΔTm, was recorded as the difference between the Tm of the fungal Hsp90 NBD with compound minus Tm of the protein without compound.

Experiment [9] has as its target T1, C. neoformans Hsp90 NBD. In words: biochemical. Conditions: SPR, 25° C., read-out: Biacore KD. In kind it is binding. On the procedure: (§2) SPR assays. For SPR experiments, Hsp90 NBD expression constructs were modified to encode a C-terminal AviTag™ for site-specific on-column biotinylation with a BirA biotin-ligase kit (Avidity LLC; BirA-500). SPR experiments were performed on a Biacore T200 instrument at 25° C. Biotinylated Hsp90 NBD was diluted to 40 μg/mL and immobilized on a streptavidin chip (Sensor Chip SA, GE Healthcare) at a density of 2000-2500 response units (RU) on the biosensor surface. […] Resulting sensorgrams were analyzed with a fit to a 1:1 binding model, using BIA evaluation software.

Experiment [10] has as its target T2, C. albicans Hsp90 NBD (Candida albicans (strain SC5314 / ATCC MYA-2876) (Yeast), UniProt P46598). In words: biochemical. In kind it is binding. On the procedure:
as §2

Experiment [11] addresses T2, C. albicans Hsp90 NBD. Conditions: cited from earlier work.

Where only a bound is given, the exact number is not on record here.

T1 sequence (J9VVA4 1-699): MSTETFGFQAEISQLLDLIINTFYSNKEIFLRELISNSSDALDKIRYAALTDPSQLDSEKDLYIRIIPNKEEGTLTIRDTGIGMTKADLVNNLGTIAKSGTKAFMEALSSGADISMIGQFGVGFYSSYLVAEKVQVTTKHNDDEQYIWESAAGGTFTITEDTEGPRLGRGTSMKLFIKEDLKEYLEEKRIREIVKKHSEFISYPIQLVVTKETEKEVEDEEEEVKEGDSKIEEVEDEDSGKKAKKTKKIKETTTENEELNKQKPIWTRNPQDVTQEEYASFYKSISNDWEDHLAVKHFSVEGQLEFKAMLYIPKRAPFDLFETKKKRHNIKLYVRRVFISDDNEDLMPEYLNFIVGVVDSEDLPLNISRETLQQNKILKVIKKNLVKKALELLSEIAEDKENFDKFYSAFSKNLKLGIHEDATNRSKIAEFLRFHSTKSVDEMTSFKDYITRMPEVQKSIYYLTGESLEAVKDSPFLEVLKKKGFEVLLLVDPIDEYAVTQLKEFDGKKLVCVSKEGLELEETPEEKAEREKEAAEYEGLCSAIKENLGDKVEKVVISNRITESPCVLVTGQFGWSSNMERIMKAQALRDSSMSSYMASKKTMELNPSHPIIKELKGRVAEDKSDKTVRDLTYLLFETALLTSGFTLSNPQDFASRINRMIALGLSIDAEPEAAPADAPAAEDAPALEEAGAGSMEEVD
Chain of Hsp90 (C. neoformans whole cell lysate) (Cryptococcus neoformans, UniProt J9VVA4) (J9VVA4 1-699): as above
T2 sequence (P46598 1-240 limits assumed): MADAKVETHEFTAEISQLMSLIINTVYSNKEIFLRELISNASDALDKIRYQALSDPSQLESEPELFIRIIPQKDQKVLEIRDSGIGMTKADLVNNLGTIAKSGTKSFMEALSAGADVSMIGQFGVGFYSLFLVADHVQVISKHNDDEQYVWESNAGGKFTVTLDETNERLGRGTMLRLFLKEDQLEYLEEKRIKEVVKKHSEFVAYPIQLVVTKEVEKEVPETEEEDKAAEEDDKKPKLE

Take `COc1ccccc1-c1cc(Nc2cc(O)cc(O)c2C(=O)N2CC[C@H](NC(C)=O)C2)n(C)n1` [ACSM01348]: the C. neo selective result in [1] is recorded as “Yes”. Further, in [2], the “C. neo Active (biochemical)” value is “Yes” and the EC50 stood at 620 nM. Also, in experiment [3], the “C. alb Active (biochemical)” value is “Yes” and the EC50 stood at 2250 nM. Also, in [4], the “C. alb Selectivity (FS)” value is on record as greater than 5 and the “C. alb Selective” value was “Yes”. Also, at C. neoformans Hsp90 NBD [5], the “C. neo Selectivity (FS)” value was 107.7. Also, in [6], the “C. neo MIC80” value is greater than 25 µM, the “C. neo MIC90” value was greater than 25 µM and the “C. neo Active (cells)” value is on record as “No”.

In the case of `Cn1nc(-c2ccccc2)cc1Nc1cc(O)cc(O)c1C(=O)N1Cc2ccncc2C1` [BUCMD00467], the EC50 in experiment [2] was found to be 151 nM. In addition, in experiment [3], the “C. alb Active (biochemical)” value is “Yes” and the EC50 was 1040 nM. Moreover, in experiment [4], the “C. alb Selectivity (FS)” value came to 0.4 and the “C. alb Selective” value is “No”. For the same compound, the “C. neo Selectivity (FS)” value at C. neoformans Hsp90 NBD [5] was 57.3. In [6], the “C. neo MIC80” value was greater than 25 µM and the “C. neo MIC90” value was greater than 25 µM.

With `COc1ccc(Cn2nc(-c3ccccc3)cc2Nc2cc(O)cc(O)c2C(=O)N2Cc3ccccc3C2)cc1` [Compound 21, 4-(2,3-dihydro-1H-isoindole-2-carbonyl)-5-((1-((4-methoxyphenyl)methyl)-3-phenyl-1H-pyrazol-5-yl)amino)benzene-1,3-diol], the “fungicidal activity in combination with fluconazole” value (“fungicidal activity in combination” for short) in experiment [7] is “fungicidal activity in combination with fluconazole”. Further, the “C. neoformans NBD ΔTm” value on C. neoformans Hsp90 NBD [8] came to 14 °C.

On to `COc1ccccc1-c1cc(Nc2cc(O)cc(O)c2C(=O)N2CC[C@@H](OC)C2)n(C)n1` [ACSM01350], for which, in experiment [1], the C. neo selective result is “Yes”. For the same compound, in experiment [2], the “C. neo Active (biochemical)” value was “Yes” and the EC50 amounted to 106 nM. Moreover, in experiment [3], the “C. alb Active (biochemical)” value is given as “Yes” and the EC50 was found to be 233 nM. Moreover, in experiment [4], the “C. alb Selectivity (FS)” value is 9.2 and the “C. alb Selective” value is recorded as “Yes”. Also, on C. neoformans Hsp90 NBD [5], the “C. neo Selectivity (FS)” value is given as 259.7. For the same compound, in [6], the “C. neo MIC80” value was greater than 25 µM, the “C. neo MIC90” value is greater than 25 µM and the “C. neo Active (cells)” value is “No”.

Regarding `COc1ccc(Cn2ncc(C)c2Nc2cc(O)cc(O)c2C(=O)N2Cc3ccccc3C2)cc1` [Compound 41, 4-(2,3-Dihydro-1H-isoindole-2-carbonyl)-5-((1-((4-methoxyphenyl)methyl)-4-methyl-1H-pyrazol-5-yl)amino)benzene-1,3-diol], the “fungicidal activity in combination” value in experiment [7] was “fungicidal activity in combination with fluconazole”.

Turning to `Cc1cc(Nc2cc(O)cc(O)c2C(=O)N2Cc3ccccc3C2)n(Cc2ccccc2Cl)n1` [Compound 89, 5-((1-((2-Chlorophenyl)methyl)-3-methyl-1H-pyrazol-5-yl)amino)-4-(2,3-dihydro-1H-isoindole-2-carbonyl)benzene-1,3-diol], the “fungicidal activity in combination” value in [7] was “fungicidal activity in combination with fluconazole”. In addition, the “C. neoformans NBD ΔTm” value on C. neoformans Hsp90 NBD [8] was found to be 12 °C.

As for `C[C@@H]1C[C@H]2O[C@@H]2/C=C\C=C\C(=O)Cc2c(Cl)c(O)cc(O)c2C(=O)O1` [Radicicol, radicicol], the Kd on C. neoformans Hsp90 NBD [9] and at C. albicans Hsp90 NBD [10] was 2 nM throughout.

On to `COc1ccccc1-c1cc(Nc2cc(O)cc(O)c2C(=O)N2CC[C@H](NC(C)=O)C2)n(C)n1` [ACSM01349], for which the C. neo selective entry in experiment [1] is listed as “Yes”. For the same compound, in experiment [2], the “C. neo Active (biochemical)” value is “Yes” and the EC50 worked out at 246 nM. Moreover, in [3], the “C. alb Active (biochemical)” value is listed as “Yes” and the EC50 was 1210 nM. In experiment [4], the “C. alb Selectivity (FS)” value came to 9.5 and the “C. alb Selective” value is “Yes”. The “C. neo Selectivity (FS)” value at C. neoformans Hsp90 NBD [5] is reported as 159.7. Moreover, in experiment [6], the “C. neo MIC80” value is greater than 25 µM, the “C. neo MIC90” value is greater than 25 µM and the “C. neo Active (cells)” value is given as “No”.

As for `COc1ccc(CON=C2C=CC=CC3OC3CC(C)OC(=O)c3c(O)cc(O)cc3C2)cc1` (stereo not drawn) [CMLD013075], on C. albicans Hsp90 NBD [11], the “binding selectivity for the C. albicans Hsp90 NBD compared to the human ortholog” value is given as greater than 25 fold.

Regarding `Cn1nc(-c2ccc(C(F)(F)F)cc2)cc1Nc1cc(O)cc(O)c1C(=O)N1Cc2ccccc2C1` [Compound 124, 4-(2,3-Dihydro-1H-isoindole-2-carbonyl)-5-((1-methyl-3-(4-(trifluoromethyl)phenyl)-1H-pyrazol-5-yl)amino)benzene-1,3-diol], the “C. neoformans NBD ΔTm” value on C. neoformans Hsp90 NBD [8] turned out to be 1 °C. In addition, the Ki at C. neoformans Hsp90 NBD [5] (FP, purified recombinant NBD) came out at 190 nM.

These data come from patent US11312722B2, “Hsp90 inhibitors and uses thereof” (TRUSTEES OF BOSTON UNIVERSITY, priority 2019, dated 2022).
